Tested on: MCA-205 sarcoma
Test: Subcutaneous MCA-205 sarcoma tumor model (anti-PD-1 sensitive), SPF-reared mice
Type: in vivo, C57BL/6 mice
Settings: for anti-cancer activity (tumor size at sacrifice): in the presence of anti-PD-1
Description: FIG. 1A is a schematic of the protocol used to study the effect of a Camu camu extract (CC) alone and additive effect when combined to anti-PD-1 therapy in a murine tumor model sensitive to anti-PD-1 therapy. Syngeneic C57BL/6 mice were implanted with 0.8×10^6 MCA-205 sarcoma, subcutaneously and treated intraperitoneally (i.p.) when tumors reached 20 to 35 mm^2 in size with anti-PD-1 mAb (250 μg/mouse; clone RMP1-14,) or isotype control (clone 2A3) with or without daily oral gavage with 200 mg/kg of [NT] Powder from SunFood). Murine studies. All animal studies were approved by the Institutional Animal Care Committee (CIPA) and carried out in compliance with the Canadian Council on Animal Care guidelines. Murine experiments were conducted using seven-week-old female C57BL/6 mice, obtained from Charles River, Canada. Germ-free female C57BL/6 mice were purchased from the International Microbiome Centre Germ-Free Facility (University of Calgary, Canada) and maintained at the CR-CHUM Germ-Free Facility. Cell culture, reagents and tumor cell lines. MCA-205 fibrosarcoma cells and E0771 mammary adenocarcinoma cells, class I MHC H-2b syngeneic cell lines for C57BL/6 mice, were used for this study. MCA-205 cells were cultured at 37° C. in the presence of 5% CO2 in Roswell Park Memorial Institute (RPMI) 1640 (Gibco-lnvitrogen) containing 10% Fetal bovine serum (FBS) (Wisent), 2 mM L-glutamine (Wisent), 100 IU/ml penicillin/streptomycin (Wisent), 1 mM sodium pyruvate (Wisent) and MEM non-essential amino acids (Gibco-lnvitrogen). E0771 cells were cultured at 37° C. in the presence of 5% CO2 in Dulbecco's Modified Eagle's Medium (DMEM) (Gibco-lnvitrogen) containing 10% FBS (Wisent), 2 mM L-glutamine, 100 IU/ml penicillin/streptomycin (Wisent), 1 mM sodium pyruvate (Wisent). Subcutaneous model of MCA-205 sarcoma and E0771 breast cancer. Syngeneic C57BL/6 mice were implanted with 0.8×10^6 MCA-205 or 0.5×10^6 E0771 subcutaneously. When tumors reached 20 to 35 mm^2 in size, mice were treated four times (or two times for flow cytometry analysis, see section below) intraperitoneally (i.p.) every three day with anti-PD-1 monoclonal antibody (mAb) (250 μg/mouse; clone RMP1-14, BioXcell) or isotype control (clone 2A3, BioXcell). Upon treatment initiation, mice received a daily oral gavage with the following products: Myrciaria dubia, [NT] raw extract (Sunfood) (200 mg/kg per mouse), fractions from the extraction round 1 (P, INT, NP, Insol) (40.18 mg/kg per mouse), fractions from the extraction round 2 (P1, P2, P3 and P4) (equivalent to fraction P dose of 40.18 mg/kg per mouse), […] (extracted from CC, see isolation process below) (0.85 mg/kg per mouse), ellagic acid (0.85 mg/kg per mouse) (Sigma-Aldrich), urolithin A (0.85 mg/kg per mouse) (Sigma-Aldrich), […] (0.5 mg/kg per mouse) (PhytoProof®, Sigma-Aldrich) and castalagin at different concentration: 1/8, 1/6, 1/4, 1/2 of the standard concentration, at the standard concentration (0.85 mg/kg per mouse), 1.5-fold (1.25 mg/kg per mouse) and three-fold increase concentration (2.55 mg/kg per mouse) (PhytoProof©, Sigma-Aldrich or isolated from food grade oak, see isolation process below). In the control group mice received daily oral gavage with water (100 μL) Tumor area was routinely monitored every three days by means of a caliper. In the depletion experiments, we used the anti-CD8 mAb (150 μg/mouse; clone 53-6.7, BioXcell) or isotype control (clone 2A3, BioXcell.

SMILES: O=C1OC[C@H]2OC(=O)c3cc(O)c(O)c(O)c3-c3c(O)c(O)c(O)c4c3C(=O)O[C@H]([C@H]3OC(=O)c5c-4c(O)c(O)c(O)c5[C@@H]3O)[C@@H]2OC(=O)c2cc(O)c(O)c(O)c2-c2c1cc(O)c(O)c2O [castalagin, Castalagin]
- dose dependence of anti-cancer activity (6 concentrations from ⅛ to 3-fold the standard dose): dose-dependent effect with a potential plateau
- antitumor effect (dose experiment, 1/4 concentration dose (0.21 mg/kg)): no antitumor effect
- anti-cancer activity (tumor size at sacrifice) (dose experiment, 3-fold concentration (2.55 mg/kg per mouse)): did not the standard dose
- anti-cancer activity (tumor size at sacrifice) (dose experiment, standard dose (0.85 mg/kg)): anti-cancer activity became significant
- anti-cancer activity (tumor size at sacrifice) (dose experiment, ½ dose (0.42 mg/kg)): Some anti-cancer activity was observed

Reference: US20230075822A1, “USE OF CASTALAGIN OR ANALOGS THEREOF FOR ANTI-CANCER EFFICACY AND TO INCREASE THE RESPONSE TO IMMUNE CHECKPOINT INHIBITORS” (THE ROYAL INSTITUTION FOR THE ADVANCEMENT OF …, priority 2020, published 2023)
